US20240115654A1, “INTRAVENOUS ADMINISTRATION OF ENGINEERED ANTIMICROBIAL AMPHIPHILIC PEPTIDES” (priority 2021, published 2024)
Read-outs that look alike come from different tables or passages of the source. Peptide text beside a SMILES is read from it.

Source text: All subjects who met eligibility criteria were confined to the clinical research unit from […] through Day 3. At admission, physical examination, vital signs, 12 lead ECG and weight were obtained, medical and medication history were updated if necessary, safety blood tests (hematology and chemistry), urinalysis, urine drug screen and an alcohol breath test were repeated and a urine pregnancy test was done for women of childbearing potential.
At each dose level, there were 2 sentinel subjects, (1 active, 1 placebo), who were dosed at least 48 hours in advance of the other subjects in their respective group. Following review of safety data, including physical examination, vital signs, and review of adverse events from the first 2 subjects, enrolment in the cohort continued.
A 12-lead ECG was performed on Day 1, within 60 minutes of infusion start (in triplicate), mid-way through the infusion, at the completion of the infusion, 30 minutes after completion of the infusion and at various timepoints following the end of the infusion.
Vital signs were recorded within 60 minutes pre-dose, at the mid-point of the infusion and post dose vitals were assessed at completion of the infusion, 0.5, 1, 2, 3, 4, 6, 9, 12, 24 and 48 hours post dose, after at least 3 minutes of rest in supine position.
Subjects returned to the study center 7 days after dosing, for the termination visit. A full physical examination, vital signs and weight were obtained, concomitant medications were updated if necessary, safety blood specimens (haematology and chemistry, PT and aPTT) and urine were collected for urinalysis and urine drug screening. A serum pregnancy test was done for women of childbearing potential and a 12-lead ECG was performed.
In this study dose limiting toxicity (DLT) was defined as any drug related ≥Grade 3 AEs occurring despite optimal therapeutic interventions (which included but were not limited to allergic/hypersensitivity reactions, dermatological reactions/infusion site reactions, haematological toxicities such as neutropenia, thrombocytopenia and anaemia and clinical chemistry abnormalities) experienced up to Day 7 (Termination Visit).
(§1) All subjects who received any amount of study drug were included in the safety analysis (Safety population).
The study was a double blinded, randomized, placebo-controlled study. The placebo administered was 0.9% sodium chloride.
On Day 1 (day of dosing), subjects were randomly assigned either peptide IV or Placebo IV. At each dose level, there were 2 sentinel subjects, (1 active, 1 placebo), who were dosed at least 48 hours in advance of the other subjects in their respective group. Following review of safety data, including physical examination, vital signs, and review of adverse events from the first 2 subjects, enrolment in the cohort continued. All subjects who met eligibility criteria were confined to the clinical research unit from Day −2 through Day 3. At admission, physical examination, vital signs, 12 lead ECG and weight were obtained, medical and medication history were updated if necessary, safety blood tests (hematology and chemistry), urinalysis, urine drug screen and an alcohol breath test were repeated and a urine pregnancy test was done for women of childbearing potential.
as §1

[1] = Cohort 4: 0.5 mg/kg IV 2-hr infusion (N = 6)
[2] = Cohort 4: 0.5 mg/kg IV 2 hr infusion, subject 001-S086
[3] = Cohort 4: 0.5 mg/kg IV 2 hr infusion, subject 001-S093
[4] = Cohort 4: 0.5 mg/kg IV 2 hr infusion, subject 001-S094
[5] = Cohort 5 1 mg/kg IV 4-hr infusion, participant 001-S119
[6] = Cohort 5 1 mg/kg IV 4-hr infusion, participant 001-S127
[7] = Cohort 5: 1 mg/kg IV 4-hr infusion (N = 6)

CC(C)[C@H](NC(=O)[C@H](Cc1c[nH]c2ccccc12)NC(=O)[C@H](CCCNC(=N)N)NC(=O)[C@H](CCCNC(=N)N)NC(=O)[C@@H](NC(=O)[C@@H](NC(=O)[C@H](CCCNC(=N)N)NC(=O)[C@@H](NC(=O)[C@@H](NC(=O)[C@H](CCCNC(=N)N)NC(=O)[C@H](CCCNC(=N)N)NC(=O)[C@H](Cc1c[nH]c2ccccc12)NC(=O)[C@@H](NC(=O)[C@H](CCCNC(=N)N)NC(=O)[C@H](CCCNC(=N)N)NC(=O)[C@@H](NC(=O)[C@H](CCCNC(=N)N)NC(=O)[C@H](CCCNC(=N)N)NC(=O)[C@@H](NC(=O)[C@H](Cc1c[nH]c2ccccc12)NC(=O)[C@H](CCCNC(=N)N)NC(=O)[C@@H](N)CCCNC(=N)N)C(C)C)C(C)C)C(C)C)C(C)C)C(C)C)C(C)C)C(C)C)C(=O)N[C@@H](CCCNC(=N)N)C(=O)N[C@@H](CCCNC(=N)N)C(N)=O [SEQ ID NO: 1] (H-RRWVRRVRRVWRRVVRVVRRWVRR-NH2)
Treatment-related TEAE: Skin and Subcutaneous Tissue Disorders, participants n (%) [1]: 0 | Treatment-related TEAE: Thrombocytopenia, participants n (%) [1]: 0 | Treatment-related TEAE: Vascular Disorders, participants n (%) [1]: 0 | Treatment-related TEAE: Vessel puncture site erythema, participants n (%) [1]: 0 | Treatment-related TEAE: Vessel puncture site pain, occurrences m [1]: 1 | Treatment-related TEAE: Vessel puncture site pain, participants n (%) [1]: 1 (16.7%) | Treatment-related TEAE: Vomiting, participants n (%) [1]: 0 | Infusion related reaction: End Date/Time [2]: End of Study | Infusion related reaction: Severity Grade [2]: Grade 1 | Infusion related reaction: Start Date/Time [2]: Day 1/1 hour | Infusion related reaction: Event (Cohort 4: 0.5 mg/kg IV 2 hr infusion, subject 001-S086, 0.5 mg/kg): Myalgia | Infusion related reaction: End Date/Time [3]: Day 1/12 hours | Infusion related reaction: Event [3]: Discomfort at right | Infusion related reaction: Severity Grade [3]: Grade 1 | Infusion related reaction: End Date/Time [4]: Day 1/2 hours | Infusion related reaction: Event [4]: Right arm cannula | Infusion related reaction: Severity Grade [4]: Grade 1 | Severity of event: Localized IRR, Right arm (Cohort 5 1 mg/kg IV 4-hr infusion, participant 001-S113): Grade 1 | Severity of event: Localized IRR, Left arm (Cohort 5 1 mg/kg IV 4-hr infusion, participant 001-S117): Grade 1 | Severity of event: Lightheadedness [5]: Grade 1 | Severity of event: Localized IRR, Left arm [5]: Grade 1 | Severity of event: Pain at dosing site, Left arm (Cohort 5 1 mg/kg IV 4-hr infusion, participant 001-S120): Grade 1 | Severity of event: Localized IRR, Left arm (Cohort 5 1 mg/kg IV 4-hr infusion, participant 001-S122): Grade 1 | Severity of event: IRR, Right arm; pain in region of right biceps muscle [6]: Grade 1 | Severity of event: Right-sided headache [6]: Grade 1 | IRRs, events (Cohort 5, 1 mg/kg over 4 hours in 250 mL, 6 participants, all Grade 1): 9 | Number of Participants Reporting at least: Onc TEAE Leading to Study Withdrawal, n (%) [7]: 0 | Number of Participants Reporting at least: One Dose-Limiting Toxicity, n (%) [7]: 0 | Number of Participants Reporting at least: One Related TEAE, n (%) [7]: 6 (100%) | Number of Participants Reporting at least: One Serious TEAE, n (%) [7]: 0 | Number of Participants Reporting at least: One TEAE Leading to Study Drug Discontinuation, n (%) [7]: 0 | Number of Participants Reporting at least: One TEAE with Common Terminology Criteria for Adverse Events (CTCAE) Toxicity ≥ Grade 3, n (%) [7]: 0 | Number of Participants Reporting at least: One TEAE, n (%) [7]: 6 (100%) | One Related TEAE, m [7]: 11 | One TEAE, m [7]: 20 | Participants With At Least 1 TEAE, n (%) [7]: 6 (100%) | Participants With At Least 1 TEAE, occurrences m [7]: 20 | Participants With At Least 1 Treatment-Related TEAE, n (%) [7]: 6 (100%) | Participants With At Least 1 Treatment-Related TEAE, occurrences m [7]: 11 | TEAE Severity Grade 1, m [7]: 19 | TEAE Severity Grade 1, n (%) [7]: 6 (100%) | TEAE Severity Grade 2, m [7]: 1 | TEAE Severity Grade 2, n (%) [7]: 1 (16.7%) | TEAE by system organ class: Blood and Lymphatic System Disorders, participants n (%) [7]: 0 | TEAE by system organ class: Gastrointestinal Disorders, occurrences m [7]: 1 | TEAE by system organ class: Gastrointestinal Disorders, participants n (%) [7]: 1 (16.7%) | TEAE by system organ class: General Disorders and Administration Site Conditions, occurrences m [7]: 9 | TEAE by system organ class: General Disorders and Administration Site Conditions, participants n (%) [7]: 6 (100%) | TEAE by system organ class: Infections and Infestations, participants n (%) [7]: 0 | TEAE by system organ class: Injury, Poisoning, and Procedural Complications, occurrences m [7]: 5 | TEAE by system organ class: Injury, Poisoning, and Procedural Complications, participants n (%) [7]: 4 (66.7%) | TEAE by system organ class: Musculoskeletal and Connective Tissue Disorders, occurrences m [7]: 1 | TEAE by system organ class: Musculoskeletal and Connective Tissue Disorders, participants n (%) [7]: 1 (16.7%) | TEAE by system organ class: Nervous System Disorders, occurrences m [7]: 2 | TEAE by system organ class: Nervous System Disorders, participants n (%) [7]: 2 (33.3%) | TEAE by system organ class: Respiratory, Thoracic, and Mediastinal disorders, participants n (%) [7]: 0 | TEAE by system organ class: Skin and Subcutaneous Tissue Disorders, occurrences m [7]: 2 | TEAE by system organ class: Skin and Subcutaneous Tissue Disorders, participants n (%) [7]: 2 (33.3%) | TEAE by system organ class: Vascular Disorders, participants n (%) [7]: 0 | TEAE severity Grade 1, occurrences m [7]: 19 | TEAE severity Grade 1, participants n (%) [7]: 6 (100%) | TEAE severity Grade 2, occurrences m [7]: 1 | TEAE severity Grade 2, participants n (%) [7]: 1 (16.7%) | TEAE severity Grade 3, participants n (%) [7]: 0 | TEAE severity Grade 4, participants n (%) [7]: 0 | TEAE severity Grade 5, participants n (%) [7]: 0 | Treatment-related TEAE: Abdominal distension, participants n (%) [7]: 0
